Measurements: patent US20210283087A1, “METHOD FOR TREATING AND RELIEVING MYOPIA” (China Medical University, priority 2014, published 2021)

Columns and labels:
Sclera fibroblast = test: Gene expression by real-time PCR in LPS-treated primary scleral fibroblasts; format: cell-based, hamster
Method: R28 rat retinal epithelial cells were provided by Gail Seigel at the Ross Eye Institute (SUNY, Buffalo, N.Y., USA). The cells were cultured in Dulbecco's modified Eagle's medium (DMEM) with 10% fetal bovine serum (FBS) at 37° C. and 5% CO2, with medium replacement every 3 days to 4 days. Sclera were placed in a 60-mm culture dish in DMEM supplemented with 10% FBS to isolate primary scleral fibroblasts; those from fewer than three passages were used in experiments. […] Cell lysates were collected for quantitative (q)PCR to determine gene expression levels.
Total RNA was extracted using the RNeasy MiniKit (Qiagen, Valencia, Calif., USA), and 5 μg of RNA was reverse-transcribed to cDNA by using the Superscript First Strand Synthesis system (Invitrogen, Carlsbad, Calif., USA). Primers and probes used for qPCR were selected from the Universal Probes Library (Roche, West Sussex, UK). Transcript levels were normalized to those of glyceraldehyde 3-phosphate dehydrogenase in each sample.

MMP2 = test: Gelatin zymography of MMP2 activity in LPS-activated scleral fibroblasts and ARPE-19 cells; format: cell-based; conditions: LPS + 100 μM atropine or LPS + 50 μM diacerein; 48 hours
Method: To facilitate subsequent analysis, 1×10^6 cells were seeded in 24-well plates for at least 12 hours. […] To measure the MMP-2/MMP-9 activities, samples were separated using 8% SDS-PAGE containing 0.1% gelatin.

[1] = test system: ARPE-19 human retinal pigment epithelial cells; test: Western blot of LPS-induced signaling in ARPE-19 cells (atropine); format: cell-based; conditions: LPS + 100 μM atropine
Method: ARPE-19 human retinal pigment epithelial cells were obtained from the Bioresource Collection and Research Center, HsinChu, Taiwan (BCRC; BCRC-60383). Cells were cultured in DMEM with 10% FBS at 37° C. and 5% CO2, with medium replacement every 3 to 4 days. […] After treatment, 30 μg of total cell lysates was subjected to sodium dodecyl sulfate polyacrylamide gel electrophoresis (SDS-PAGE), followed by immunoblot analysis. Primary antibodies used included ERK (Thr202/Tyr204), AKT (Ser473), PI3K (p85[Tyr458]/p55[Tyr199]), NF-κB (p65, Ser536), and c-Fos (Ser32; Cell Signaling, Beverly, Mass., USA). Antirabbit or antimouse secondary antibody conjugated with horseradish peroxidase was also used. Immunoreactive protein bands were detected using an enhanced chemiluminescence kit (ECL, Pierce, Thermo Fisher Scientific, Pittsburgh, Pa., USA). Equal loading was confirmed through probing the blots with β-actin antibody (Abcam, Cambridge, Mass., USA) as well as anti-ERK, AKT, PI3K, NF-κB, and c-Fos.

[2] = sclera fibroblast, 100 ng/ml LPS and 100 μM atropine for 4 hours

SMILES: CN1[C@@H]2CC[C@H]1C[C@@H](OC(=O)C(CO)c1ccccc1)C2 (stereo partly shown) [Atropine, atropine]
- Chrm5 gene expression level (Sclera fibroblast): 0.98 ± 0.12
- Chrm 1 gene expression level (Sclera fibroblast; [2]): 0.73 ± 0.11
- Chrm 2 gene expression level (Sclera fibroblast; [2]): 1.24 ± 0.14
- Chrm 3 gene expression level (Sclera fibroblast; [2]): 0.70 ± 0.23
- Chrm 4 gene expression level (Sclera fibroblast; [2]): 1.11 ± 0.17
- Fos gene expression level (Sclera fibroblast; [2]): 0.93 ± 0.17
- IL1b gene expression level (Sclera fibroblast; [2]): 0.75 ± 0.13
- IL10 gene expression level (Sclera fibroblast; [2]): 1.05 ± 0.21
- IL-6 gene expression level (Sclera fibroblast; [2]): 0.79 ± 0.18
- MMP2 gene expression level (Sclera fibroblast; [2]): 0.74 ± 0.19
- NFkB gene expression level (Sclera fibroblast; [2]): 0.36 ± 0.3
- Tgfb1 gene expression level (Sclera fibroblast; [2]): 0.48 ± 0.24
- Tnfa gene expression level (Sclera fibroblast; [2]): 0.80 ± 0.2
- MMP2 activities in cells activated by LPS (MMP2): decreased
- Activation of ERK through LPS and downstream c-FOS [1]: inhibited
- LPS activation of PI3K, AKT, and NF-κB [1]: inhibited
